Structures can show the parent of a compound that is named as a salt. Where two headings read alike, the source gives them in different places.

For four molecules, IC50, CC50 and half-life results are on record in paper PMC8305768, “Design, Synthesis and Antiparasitic Evaluation of Click Phospholipids” (Molecules, 2021).

Series [1] has as its system T. cruzi epimastigotes (Y strain). As to the kind of experiment: Antiproliferative assay on T. cruzi epimastigotes. Type of series: cell-based. To be noted: Trypanosoma cruzi. On the procedure:
T. cruzi epimastigotes (Y strain) were obtained by axenic cultivation in the LIT medium, supplemented with 10% FBS (Cultilab, São Paulo, Brazil). Cultures were maintained at […] for 4–5 days until they reached the log growth phase. New cultures were made every 4 days from the initial inoculum of 2 × 10^6 parasites/mL. T. cruzi trypomastigotes (Y strain) were maintained in culture by the infection of LLC-MK2 (ATTC-CCL7) epithelial cells. This cell line was cultured in […] tissue culture bottles (TPP) in RPMI 1640 medium (Gibco), (Thermo Fischer Scientific, Carlsbad, CA, USA) supplemented with 10% FBS (Gibco) (Thermo Fischer Scientific, Carlsbad, CA, USA). Cultures were maintained at 37 °C under 5% CO2 atmosphere, and RPMI 1640 medium and SFB were exchanged every 48 h. After confluence, the cultures were treated with 1 mL of a mixture of trypsin and versene (Sigma, São Paulo, Brazil) (0.2 and 0.002%, respectively). After 24 h, a subconfluence culture was infected with the trypomastigotes in the approximate proportion of 10:1 parasites/cell. From five to seven days post infection, the trypomastigote stage was obtained from the culture supernatant. Alternatively (Figure 2), T. cruzi strain Y was maintained as previously described.
The trypomastigotes were obtained from the supernatant of a previously infected cell line (LLC-MK2). Between 5 and 7 days after infection, protozoa were collected from the supernatants of the infected LLC-MK2 cells and were then incubated with fresh RPMI 1640 medium supplemented with 0.5% FBS, with or without the compounds, for 24 h at 37 °C under a 5% CO2 atmosphere. […] The experiment was performed in duplicate for each of the three different experiments. For the antiproliferative assay involving epimastigotes, […] were cultivated in LIT medium supplemented with 10% FBS. After 24 h of epimastigote growth, different concentrations of 50 nM to 50 µM were added to the culture and incubated for 120 h at 28 °C. Cells were collected every 24 h for counting in a Neubauer chamber. Two controls were used and consisted of liver infusion broth-tryptose (LIT) supplemented with 10% FBS and LIT added with 0.01% DMSO. To investigate the effect of the compounds on intracellular amastigotes, peritoneal macrophages from Swiss mouse (CF1) plated in 96 wells plates (Costar®, Sigma, São Paulo, Brazil) were incubated for 2 h with T. cruzi trypomastigotes at a ratio of 10 parasites to 1 cell. The non-internalized parasites were removed by washing with the RPMI 1640 medium, and the host cells were incubated for 24 h at 37 °C to allow full internalization and differentiation of trypomastigotes to amastigotes. Fresh 10% FBS-RPMI 1640 medium with 1 µg/mL Hoescht 3348 and 1 µg/mL of WGA-FITC (control) or the same solution containing the inhibitors was added to the infected cells, which were then incubated for 96 h at 37 °C. Every 24 h samples were taken and analysed in high content equipment (InCell Analyser 2000, GE Healthcare, Chicago, IL, USA) with 20× air objective (NA 0.4) using respectively filters to excitation and emission to DAPI (405/455 nm), FITC (488/505 nm) and Cy3 (514/605 nm). Six images were collected for each well for reliable statistical analysis. […] The infection index (i.e., the percentage of infected host cells multiplied by the average number of intracellular amastigotes per infected host cell) was determined by counting a total of 500 host cells. Inhibitor activity was calculated using the SigmaPlot (version 10) program (Systat Software, Inc., San Jose, CA, USA). The results are expressed as the mean values from three independent experiments. The IC50 was calculated for promastigotes and intracellular amastigotes by fitting the values to a non-linear curve analysis. The regression analyses were performed with SigmaPlot 10 (version 10) program (Systat Software, Inc., San Jose, CA, USA).

Series [2] concerns PMA-differentiated THP-1 cells. Description: Cytotoxicity against THP-1 macrophages (MTT). The conditions noted are these: PMA-differentiated THP-1 macrophages, 72 h, read-out: Toxicity CC50 ± SD Or CC50 Interval Estimation. The class given is cell-based. On the procedure: The effect of compounds selected compounds on THP-1-derived macrophages was assessed by the colorimetric MTT assay (3-(4,5-dimethylthiazol-2-yl)-2,5-diphenyl tetrazolium bromide). Briefly, 1 × 10^5 THP-1 cells/mL were differentiated into macrophages by addition of 20 ng/mL of phorbol-myristate 13-acetate (PMA, Sigma, Saint Louis, MI, USA) for 18 h, followed by replacement with fresh medium for 24 h. Cells were incubated with 100 µL of compounds ranging from 100 to 1 µM after dilution in the RPMI complete medium containing a maximum amount of 1% DMSO. After incubation for 72 h, the medium was removed and 100 µL of 0.5 mg/mL MTT solution diluted in RPMI was added. Plates were incubated for an additional 4 h to allow viable cells to convert MTT into a purple formazan product. Solubilization of formazan crystals was achieved by the addition of 2-propanol and absorbance was read at 570 nm using a Synergy 2 Multi-Mode Reader (Biotek, Winooski, VT, USA). Cytotoxicity was evaluated by the determination of the CC50 value (drug concentration that reduced the percentage of viable cells in 50%) and calculated by non-linear regression analysis using GraphPad Prism version 8.1.1 for Windows (GraphPad Software, San Diego, CA, USA).

Series [3] deals with T. cruzi intracellular amastigotes (Y strain). As to the kind of experiment: T. cruzi intracellular amastigotes in Swiss mouse peritoneal macrophages (high content imaging). The class given is cell-based. To be noted: Trypanosoma cruzi, Peritoneal macrophage.
Experimental: The trypomastigotes were obtained from the supernatant of a previously infected cell line (LLC-MK2). Between 5 and 7 days after infection, protozoa were collected from the supernatants of the infected LLC-MK2 cells and were then incubated with fresh RPMI 1640 medium supplemented with 0.5% FBS, with or without the compounds, for 24 h at 37 °C under a 5% CO2 atmosphere. […] The experiment was performed in duplicate for each of the three different experiments. […] To investigate the effect of the compounds on intracellular amastigotes, peritoneal macrophages from Swiss mouse (CF1) plated in 96 wells plates (Costar®, Sigma, São Paulo, Brazil) were incubated for 2 h with T. cruzi trypomastigotes at a ratio of 10 parasites to 1 cell. The non-internalized parasites were removed by washing with the RPMI 1640 medium, and the host cells were incubated for 24 h at 37 °C to allow full internalization and differentiation of trypomastigotes to amastigotes. Fresh 10% FBS-RPMI 1640 medium with 1 µg/mL Hoescht 3348 and 1 µg/mL of WGA-FITC (control) or the same solution containing the inhibitors was added to the infected cells, which were then incubated for 96 h at 37 °C. Every 24 h samples were taken and analysed in high content equipment (InCell Analyser 2000, GE Healthcare, Chicago, IL, USA) with 20× air objective (NA 0.4) using respectively filters to excitation and emission to DAPI (405/455 nm), FITC (488/505 nm) and Cy3 (514/605 nm). Six images were collected for each well for reliable statistical analysis. […] The infection index (i.e., the percentage of infected host cells multiplied by the average number of intracellular amastigotes per infected host cell) was determined by counting a total of 500 host cells. Inhibitor activity was calculated using the SigmaPlot (version 10) program (Systat Software, Inc., San Jose, CA, USA). The results are expressed as the mean values from three independent experiments. The IC50 was calculated for promastigotes and intracellular amastigotes by fitting the values to a non-linear curve analysis. […]
Details of series [4]: method as in PMID 18472998, PMID 22573856. To be noted: in humans ref 12,13; cited from earlier work.
The mark [5] stands for this setting: epimastigotes, 24 h, read-out: IC50 24 h.
Setting [6] is: epimastigotes, 48 h, read-out: IC50 48 h.
Setting [7] is: epimastigotes, 72 h, read-out: IC50 72 h.

As usually defined, the IC50 is the concentration at which inhibition is half-maximal. On to `CCCCCc1cn(CCCCCCCCCCCOP(=O)([O-])OCC[N+](C)(C)C)nn1` [Compound 25, 11-(4-pentyl-1H-1,2,3-triazol-1-yl)undecyl (2-(trimethylammonio)ethyl) phosphate inner salt], for which the IC50 in series [1] (setting [5]) was determined as 7.8 µM; in series [1] (setting [6]), 3.85 µM; in series [1] (setting [7]) it was 2.16 µM.
Regarding `C[N+](C)(C)CCOP(=O)([O-])OCCCCCCCCCCCn1cc(CC2CCCCC2)nn1` [Compound 29, 11-(4-(cyclohexylmethyl)-1H-1,2,3-triazol-1-yl)undecyl (2-(trimethylammonio)ethyl) phosphate inner salt], the half-maximal inhibitory concentration (IC50) in series [1] (setting [5]), in series [1] (setting [6]) and in series [1] (setting [7]) was > 10 µM in each case.
As usually defined, the CC50 is the concentration giving 50% cytotoxicity. For the molecule `CCCCCCCCc1noc(CCCCCCCCCCOP(=O)([O-])OCC[N+](C)(C)C)n1` [Compound 54, 10-(3-octyl-1,2,4-oxadiazol-5-yl)decyl (2-(trimethylammonio)ethyl) phosphate inner salt], the cytotoxic concentration (CC50) in series [2] was 10.8 µM.
In general, half-life refers to how long it takes for the measured level to halve. On to `CCCCCCCCCCCCCCCCOP(=O)([O-])OCC[N+](C)(C)C` [Miltefosine, hexadecylphosphocholine, reference compound], for which the IC50 is 12.4 ± 0.6 µM in series [3] (24 h, read-out: IC50 24 h); 4.59 ± 0.1 µM in series [3] (48 h, read-out: IC50 48 h); 4.3 ± 0.12 µM in series [3] (72 h, read-out: IC50 72 h); 18.4 ± 1.2 µM in series [1] (24 h, read-out: IC50 24 h); 9.5 ± 0.9 µM in series [1] (48 h, read-out: IC50 48 h); 8.34 µM in series [1] (72 h, read-out: IC50 72 h). The half-life in series [4] is 100 to 200 h.
